Experiment: general statement on activity and toxicity of carnitine stereoisomers and acyl-carnitine

Row | SMILES | toxicity of carnitine isomer (D-isomer versus other isomer) | activity of carnitine isomer (L-isomer versus other isomer)
1 | C[N+](C)(C)C[C@@H](O)CC(=O)[O-] [D-carnitine] | slightly more toxic | 
2 | C[N+](C)(C)C[C@H](O)CC(=O)[O-] [L-carnitine] |  | more active

Reference: patent publication US4330557A, “Acyl-carnitine and use thereof in parenteral administration of triglycerides” (priority 1980, dated 1982)
